Reference: ChEMBL document CHEMBL1201862, “PubChem BioAssay data set” (2004)
The source made the active and inactive calls.

How the values were obtained:
[1] = biological target: G-protein coupled receptor 55 (Homo sapiens, UniProt Q9Y2T6); assay: blockers of GPR55 signalling, imaged – imaging, image-based, counter-screen for GPR35 antagonist project, SAR follow-up (AID 2397); format: functional
[2] = tested on: INS1; assay: INS-1E survival protection against cytokine death – cell-based, luminescence, retest, dose response (AID 449756); format: functional; details: Rattus norvegicus;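 further: cell death triggered by IL-1 beta plus TNF-alpha plus IFN-gamma mixture; protective hits raise ATP signal compared with cytokine alone wells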
[3] = NIH3T3 cell viability loss – ATP luminescence, mouse fibroblasts, counter-screen, dose response (AID 2010); format: functional, cell-based;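 further: cells exposed to compound for about 90 hours before reading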
[4] = tested on: HEK293; assay: inhibition of NOD1-driven NF-kB reporter – cell-based, luminescence, uHTS, primary screen (AID 1578); format: functional; details: Homo sapiens
[5] = tested on: HEK293; assay: cells; format: functional, cell-based; details: Homo sapiens
[6] = tested on: HEK293; assay: cells; format: functional, cell-based; details: Homo sapiens; remark: listed apart in the source
[7] = tested on: HEK293; assay: NOD2 signaling inhibitors in MDP-stimulated cells, cell-based, uHTS, luminescence (AID 2001); format: functional; details: Homo sapiens
[8] = NIH-3T3 fibroblast cytotoxicity, dose response, cytotoxicity control, cell-based, fluorescence, Alamar Blue, secondary assay (AID 2327); format: functional;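 further: NIH-3T3 mouse fibroblasts cultured with fluconazole at 8 µg/mL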
[9] = biological target: Nucleotide-binding oligomerization domain-containing protein 2 (Homo sapiens, UniProt Q9HC29); assay: inhibition of NOD2-driven NF-kB reporter – cell-based, luminescence, uHTS, HEK293 (AID 1566); format: functional
[10] = Trypanosoma cruzi growth suppression in host cells – NIH3T3 host cells, beta-gal luminescence, confirmation (AID 2044); format: functional, cell-based;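 further: intracellular parasites grown in NIH/3T3 mouse fibroblasts as host cells; luminescent beta-galactosidase reporter signal from transgenic T. cruzi replicating inside host cells; inhibitors lower the luminescence signal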
[11] = fluconazole-exposed Candida albicans growth modulators – fluorescence, retest, confirmation (AID 2467); format: functional, cell-based
[12] = microbe, parasite or virus in culture; format: functional; details: Mycobacterium tuberculosis
[13] = tested on: HEK293; assay: cells; format: functional, cell-based; details: Homo sapiens; remark: listed apart in the source
[14] = HepG2 cell cytotoxicity, dose response, cytotoxicity control for non-replicating M. tuberculosis project (AID 489018); format: functional; details: Mycobacterium tuberculosis
[15] = Luminescence Cell-Based Dose Confirmation HTS to Identify Inhibitors of Platelet Dense Granule Release. [Related pubchem assays: 1663 (Primary HTS), 1678 (Summary of Project)]; format: functional
[16] = T. cruzi infection blockers in NIH3T3 cells – beta-gal luminescence, NIH3T3 host cells, confirmation (AID 2630); format: functional, cell-based; details: Mus musculus
[17] = Luminescence Cell-Based/Microorganism Confirmation at Dose of Inhibitors of Trypanosoma cruzi Infection. [Related pubchem assays: 1885, 1968 ]; format: functional
[18] = Luminescence Cell-Based Secondary HTS screen to identify cytotoxic compounds of NIH3T3 cells. [Related pubchem assays: 1885, 1968 ]; format: functional
[19] = cells; format: functional
[20] = biological target: Luciferin 4-monooxygenase (Photinus pyralis, UniProt P08659); assay: inhibition of purified Photinus pyralis luciferase – biochemical, luminescence, dose response (AID 1891)
[21] = biological target: Lysine-specific demethylase 4A (Homo sapiens, UniProt O75164); assay: inhibition of JMJD2A H3K9me3 demethylation – biochemical, DELFIA europium, cherry-picked samples, selectivity assay for GASC-1 inhibitor project, dose response (AID 488840)
[22] = biological target: Lysine-specific demethylase 4C (Homo sapiens, UniProt Q9H3R0); assay: inhibition of JMJD2C H3K9me3 demethylation – biochemical, DELFIA europium, cherry-picked samples, dose response (AID 488835); format: functional
[23] = biological target: Phosphoethanolamine/phosphocholine phosphatase (Homo sapiens, UniProt Q8TCT1); assay: SAR assay for compounds that inhibit PHOSPHO1. [Related pubchem assays (depositor defined):AID1545, AID1565, AID1574]
[24] = biological target: DNA dC->dU-editing enzyme APOBEC-3G (Homo sapiens, UniProt Q9HC16); assay: Dose Response confirmation of small molecule APOBEC3G DNA Deaminase Inhibitors via a fluorescence-based single-stranded DNA deaminase assay. [Related pubchem assays (depositor defined):AID493012, AID493028]; format: functional
[25] = biological target: T1, Mannose-6-phosphate isomerase (Homo sapiens, UniProt P34949); assay: phosphomannose isomerase inhibition – biochemical, fluorescence intensity, confirmation (AID 1535)
T1 sequence (P34949 whole entry): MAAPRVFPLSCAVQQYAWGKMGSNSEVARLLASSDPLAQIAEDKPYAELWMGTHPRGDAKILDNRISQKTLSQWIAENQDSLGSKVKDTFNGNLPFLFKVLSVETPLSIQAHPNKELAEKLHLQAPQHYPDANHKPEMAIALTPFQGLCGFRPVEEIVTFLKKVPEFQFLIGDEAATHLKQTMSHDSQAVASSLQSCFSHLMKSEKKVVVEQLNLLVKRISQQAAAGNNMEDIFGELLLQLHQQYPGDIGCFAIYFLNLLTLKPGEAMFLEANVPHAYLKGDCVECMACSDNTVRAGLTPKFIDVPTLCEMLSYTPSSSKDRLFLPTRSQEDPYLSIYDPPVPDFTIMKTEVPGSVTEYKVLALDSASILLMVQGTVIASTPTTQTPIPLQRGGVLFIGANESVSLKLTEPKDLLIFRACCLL

[26] = biological target: Glucose-6-phosphate 1-dehydrogenase (Homo sapiens, UniProt P11413); assay: inhibition of Homo sapiens G6PD, dose series – biochemical, fluorescence, selectivity assay for P. falciparum G6PD inhibitor project, dose response (AID 504792); format: functional
[27] = biological target: Phosphomannomutase 2 (Homo sapiens, UniProt O15305); assay: Counter screen SAR assay for PMM2 inhibitors via a fluorescence intensity assay. [Related pubchem assays (depositor defined):AID1545, AID1574]
[28] = biological target: T2, Voltage-gated N-type calcium channel alpha-1B subunit/Amyloid beta A4 precursor protein-binding family A member 1 (Homo sapiens, UniProt Q00975+Q02410); assay: disruptors of Mint-PDZ/N-type channel peptide interaction – biochemical, HTRF, SAR follow-up (AID 2489); format: functional
[29] = biological target: SUMO E1/E2 (Homo sapiens, UniProt P63279+Q9UBE0+Q9UBT2); assay: SAR analysis of SUMOylation using HTRF in an in-Vitro dose response assay. [Related pubchem assays (depositor defined):AID2006, AID2011, AID2018, AID2069, AID2658]; format: functional
[30] = biological target: T2, Voltage-gated N-type calcium channel alpha-1B subunit/Amyloid beta A4 precursor protein-binding family A member 1; assay: disruptors of Mint-PDZ/N-type channel peptide interaction – biochemical, HTRF, set 2, SAR follow-up (AID 434980); format: functional
[31] = tested on: HEK293; assay: cells; details: Homo sapiens
[32] = biological target: Tumor necrosis factor (Homo sapiens, UniProt P01375); assay: analog potency on TNFa NF-kB signaling – cell-based, revised, SAR follow-up (AID 2337); format: functional
[33] = biological target: T3, Nucleotide-binding oligomerization domain-containing protein 1 (Homo sapiens, UniProt Q9Y239); assay: blockers of NOD1 pathway activity – revised, SAR follow-up (AID 2333); format: functional
T3 sequence (Q9Y239 whole entry): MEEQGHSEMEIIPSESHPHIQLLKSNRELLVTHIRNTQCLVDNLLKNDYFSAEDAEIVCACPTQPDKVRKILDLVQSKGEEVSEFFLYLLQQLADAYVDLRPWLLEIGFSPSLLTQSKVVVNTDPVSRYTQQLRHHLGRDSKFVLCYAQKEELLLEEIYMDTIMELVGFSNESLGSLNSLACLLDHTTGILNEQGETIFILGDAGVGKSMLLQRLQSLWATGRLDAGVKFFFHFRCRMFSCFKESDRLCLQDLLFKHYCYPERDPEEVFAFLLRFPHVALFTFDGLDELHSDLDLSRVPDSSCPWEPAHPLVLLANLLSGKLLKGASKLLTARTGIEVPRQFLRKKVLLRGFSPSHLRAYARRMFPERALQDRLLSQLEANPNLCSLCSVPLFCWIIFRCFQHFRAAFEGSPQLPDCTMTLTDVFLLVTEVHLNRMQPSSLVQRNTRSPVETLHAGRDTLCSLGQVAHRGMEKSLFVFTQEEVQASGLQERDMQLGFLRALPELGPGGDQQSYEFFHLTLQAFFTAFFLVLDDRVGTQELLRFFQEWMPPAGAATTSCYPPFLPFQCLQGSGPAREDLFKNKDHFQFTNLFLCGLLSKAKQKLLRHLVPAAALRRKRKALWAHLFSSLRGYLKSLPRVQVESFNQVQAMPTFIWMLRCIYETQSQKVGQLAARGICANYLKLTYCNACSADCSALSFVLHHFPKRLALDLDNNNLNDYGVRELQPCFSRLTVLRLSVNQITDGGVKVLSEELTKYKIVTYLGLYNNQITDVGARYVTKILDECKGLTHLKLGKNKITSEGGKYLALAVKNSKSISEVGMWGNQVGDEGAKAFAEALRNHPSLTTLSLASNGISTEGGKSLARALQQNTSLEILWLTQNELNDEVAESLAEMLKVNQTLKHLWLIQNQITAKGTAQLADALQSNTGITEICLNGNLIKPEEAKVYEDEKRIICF

T2 sequence (Q00975 whole entry): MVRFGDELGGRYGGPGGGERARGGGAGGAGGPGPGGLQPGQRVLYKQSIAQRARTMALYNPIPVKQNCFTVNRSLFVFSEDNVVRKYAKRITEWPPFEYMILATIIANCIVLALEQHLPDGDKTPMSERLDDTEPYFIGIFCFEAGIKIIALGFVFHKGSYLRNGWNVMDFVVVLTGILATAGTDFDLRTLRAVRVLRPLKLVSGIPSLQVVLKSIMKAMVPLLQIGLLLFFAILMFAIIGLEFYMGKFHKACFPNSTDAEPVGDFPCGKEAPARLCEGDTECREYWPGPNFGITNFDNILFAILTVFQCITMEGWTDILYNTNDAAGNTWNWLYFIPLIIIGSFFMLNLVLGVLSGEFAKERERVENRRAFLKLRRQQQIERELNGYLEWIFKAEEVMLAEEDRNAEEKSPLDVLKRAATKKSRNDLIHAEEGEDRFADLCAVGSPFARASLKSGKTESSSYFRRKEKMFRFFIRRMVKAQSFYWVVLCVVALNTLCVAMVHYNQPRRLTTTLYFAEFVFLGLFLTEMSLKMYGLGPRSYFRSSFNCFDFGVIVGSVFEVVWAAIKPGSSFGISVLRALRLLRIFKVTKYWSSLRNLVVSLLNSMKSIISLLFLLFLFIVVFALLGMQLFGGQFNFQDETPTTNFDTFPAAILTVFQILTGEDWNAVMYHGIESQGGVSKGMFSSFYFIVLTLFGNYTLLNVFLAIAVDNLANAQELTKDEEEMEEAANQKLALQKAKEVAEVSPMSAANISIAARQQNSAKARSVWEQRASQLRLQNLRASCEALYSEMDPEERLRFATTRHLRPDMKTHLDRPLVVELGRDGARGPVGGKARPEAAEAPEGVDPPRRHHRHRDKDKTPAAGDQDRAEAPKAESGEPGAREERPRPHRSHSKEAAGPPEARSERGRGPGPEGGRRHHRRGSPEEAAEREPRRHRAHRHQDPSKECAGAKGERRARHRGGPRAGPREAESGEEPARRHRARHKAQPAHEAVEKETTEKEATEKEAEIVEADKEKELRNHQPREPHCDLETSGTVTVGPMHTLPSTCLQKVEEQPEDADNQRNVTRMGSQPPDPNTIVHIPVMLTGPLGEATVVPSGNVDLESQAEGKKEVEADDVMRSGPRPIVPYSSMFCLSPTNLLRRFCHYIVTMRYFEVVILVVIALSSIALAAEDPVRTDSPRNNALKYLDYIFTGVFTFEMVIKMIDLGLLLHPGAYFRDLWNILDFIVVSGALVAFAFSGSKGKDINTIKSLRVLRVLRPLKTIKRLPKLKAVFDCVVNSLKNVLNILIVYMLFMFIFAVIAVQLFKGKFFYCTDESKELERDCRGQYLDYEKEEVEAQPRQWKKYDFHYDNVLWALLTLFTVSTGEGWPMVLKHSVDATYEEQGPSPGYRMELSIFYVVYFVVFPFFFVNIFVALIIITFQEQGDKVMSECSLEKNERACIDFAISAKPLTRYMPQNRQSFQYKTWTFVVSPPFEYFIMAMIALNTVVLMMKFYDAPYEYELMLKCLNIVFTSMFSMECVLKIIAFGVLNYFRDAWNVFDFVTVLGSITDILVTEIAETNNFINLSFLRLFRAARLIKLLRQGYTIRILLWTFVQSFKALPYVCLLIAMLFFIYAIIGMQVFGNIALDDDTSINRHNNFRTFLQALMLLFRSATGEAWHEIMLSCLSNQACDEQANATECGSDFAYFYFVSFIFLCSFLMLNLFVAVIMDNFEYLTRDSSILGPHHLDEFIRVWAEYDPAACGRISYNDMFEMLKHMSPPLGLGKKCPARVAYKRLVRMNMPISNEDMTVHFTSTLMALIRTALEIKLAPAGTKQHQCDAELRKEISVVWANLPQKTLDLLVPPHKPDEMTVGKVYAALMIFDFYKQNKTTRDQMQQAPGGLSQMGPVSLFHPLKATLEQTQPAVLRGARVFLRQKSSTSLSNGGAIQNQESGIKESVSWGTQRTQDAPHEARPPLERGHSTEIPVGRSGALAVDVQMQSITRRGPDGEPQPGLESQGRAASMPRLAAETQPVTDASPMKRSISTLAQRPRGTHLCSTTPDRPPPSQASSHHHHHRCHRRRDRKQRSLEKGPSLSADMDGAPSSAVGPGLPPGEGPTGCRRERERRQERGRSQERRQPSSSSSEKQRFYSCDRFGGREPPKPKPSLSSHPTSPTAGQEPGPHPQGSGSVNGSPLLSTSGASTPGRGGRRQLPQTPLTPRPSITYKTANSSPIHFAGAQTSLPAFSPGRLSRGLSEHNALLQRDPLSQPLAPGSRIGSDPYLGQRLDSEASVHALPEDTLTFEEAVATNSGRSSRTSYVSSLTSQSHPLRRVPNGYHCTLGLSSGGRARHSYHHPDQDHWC
T2 sequence (Q02410 whole entry): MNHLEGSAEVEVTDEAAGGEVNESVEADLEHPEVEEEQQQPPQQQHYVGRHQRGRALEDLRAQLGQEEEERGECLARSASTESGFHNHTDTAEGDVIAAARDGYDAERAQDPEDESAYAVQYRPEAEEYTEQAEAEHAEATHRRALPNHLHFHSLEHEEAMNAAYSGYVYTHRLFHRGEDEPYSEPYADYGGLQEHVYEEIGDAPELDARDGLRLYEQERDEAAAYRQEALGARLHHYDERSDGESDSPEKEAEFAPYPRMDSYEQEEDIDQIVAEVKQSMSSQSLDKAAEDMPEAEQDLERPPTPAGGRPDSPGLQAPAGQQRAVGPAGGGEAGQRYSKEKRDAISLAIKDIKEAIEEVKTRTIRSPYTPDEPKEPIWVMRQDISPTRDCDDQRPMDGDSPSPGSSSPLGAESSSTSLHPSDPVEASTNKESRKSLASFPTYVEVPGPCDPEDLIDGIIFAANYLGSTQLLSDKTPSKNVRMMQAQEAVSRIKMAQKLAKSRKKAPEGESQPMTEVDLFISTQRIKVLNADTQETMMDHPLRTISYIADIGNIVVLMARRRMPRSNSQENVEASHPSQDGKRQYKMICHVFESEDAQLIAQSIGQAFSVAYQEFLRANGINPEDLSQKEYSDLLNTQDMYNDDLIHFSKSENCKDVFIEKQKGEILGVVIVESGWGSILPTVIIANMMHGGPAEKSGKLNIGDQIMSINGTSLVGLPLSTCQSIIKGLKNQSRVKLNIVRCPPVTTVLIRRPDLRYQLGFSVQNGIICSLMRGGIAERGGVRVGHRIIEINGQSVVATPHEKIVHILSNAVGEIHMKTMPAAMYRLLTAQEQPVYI
Chain of SUMO E1/E2 (Q9UBE0 whole entry): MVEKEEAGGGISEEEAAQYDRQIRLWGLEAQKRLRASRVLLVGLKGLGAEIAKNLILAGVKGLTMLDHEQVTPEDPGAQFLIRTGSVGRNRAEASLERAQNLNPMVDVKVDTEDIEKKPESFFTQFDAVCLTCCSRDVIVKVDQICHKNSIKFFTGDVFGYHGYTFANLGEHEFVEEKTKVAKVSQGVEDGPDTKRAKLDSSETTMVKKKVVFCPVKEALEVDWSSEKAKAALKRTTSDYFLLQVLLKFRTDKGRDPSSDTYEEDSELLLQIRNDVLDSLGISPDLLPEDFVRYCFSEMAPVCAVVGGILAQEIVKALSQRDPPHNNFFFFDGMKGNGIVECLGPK
Chain of SUMO E1/E2 (Q9UBT2 whole entry): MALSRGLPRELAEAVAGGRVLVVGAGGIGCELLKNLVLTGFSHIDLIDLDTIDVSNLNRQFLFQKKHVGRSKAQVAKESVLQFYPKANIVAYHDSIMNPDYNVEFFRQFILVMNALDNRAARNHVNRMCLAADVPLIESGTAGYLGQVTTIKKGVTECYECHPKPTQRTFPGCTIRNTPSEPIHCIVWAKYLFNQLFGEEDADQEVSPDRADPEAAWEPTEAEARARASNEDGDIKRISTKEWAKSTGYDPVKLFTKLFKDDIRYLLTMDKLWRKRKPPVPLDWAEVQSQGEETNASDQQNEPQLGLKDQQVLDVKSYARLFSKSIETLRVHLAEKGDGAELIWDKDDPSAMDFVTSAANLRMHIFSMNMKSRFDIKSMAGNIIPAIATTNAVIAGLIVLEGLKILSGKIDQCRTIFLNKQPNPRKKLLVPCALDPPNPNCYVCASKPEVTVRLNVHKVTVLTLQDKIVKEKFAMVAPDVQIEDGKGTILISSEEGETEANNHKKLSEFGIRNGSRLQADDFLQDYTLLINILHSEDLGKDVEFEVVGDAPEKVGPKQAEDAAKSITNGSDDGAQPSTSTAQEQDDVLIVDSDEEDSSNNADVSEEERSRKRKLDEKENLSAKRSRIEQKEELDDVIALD
Chain of SUMO E1/E2 (P63279 whole entry): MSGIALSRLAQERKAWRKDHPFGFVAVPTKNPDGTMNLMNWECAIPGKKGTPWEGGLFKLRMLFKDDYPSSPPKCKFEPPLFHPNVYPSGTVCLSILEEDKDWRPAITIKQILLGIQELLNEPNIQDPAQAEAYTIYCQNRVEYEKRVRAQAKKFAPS
Chain of Luciferin 4-monooxygenase (P08659 whole entry): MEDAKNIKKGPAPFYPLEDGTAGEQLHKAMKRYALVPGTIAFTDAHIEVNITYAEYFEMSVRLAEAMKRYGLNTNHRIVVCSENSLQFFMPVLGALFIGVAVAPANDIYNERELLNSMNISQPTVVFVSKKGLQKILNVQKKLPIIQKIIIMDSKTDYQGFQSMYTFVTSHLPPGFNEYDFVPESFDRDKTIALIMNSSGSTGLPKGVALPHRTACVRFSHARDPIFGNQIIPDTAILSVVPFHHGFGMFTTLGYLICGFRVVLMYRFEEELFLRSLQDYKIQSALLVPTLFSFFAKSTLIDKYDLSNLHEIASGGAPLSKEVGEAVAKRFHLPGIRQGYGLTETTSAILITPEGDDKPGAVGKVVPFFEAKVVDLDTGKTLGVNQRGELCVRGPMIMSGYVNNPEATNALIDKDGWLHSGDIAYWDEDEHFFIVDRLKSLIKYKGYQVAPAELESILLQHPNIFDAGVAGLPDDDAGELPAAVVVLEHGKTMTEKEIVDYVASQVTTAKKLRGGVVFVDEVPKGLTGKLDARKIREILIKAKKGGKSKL

For `Cc1ccc2c(c1)c(/C=C/c1cc[n+](C)cc1)c(C)n2C`, which IC50 [1] is on record?
The IC50 was 0.462 µM (active).

And the AC50 [2]?
Its AC50 is 3.46 µM (active).

What about the EC50 [3] of the same compound?
Its EC50 is > 60 µM (not active).

What about the EC50 [4] of the same compound?
Its EC50 is 17.3 µM (active).

And the IC50 [5]?
Its IC50 is > 20 µM (inactive).

What about the IC50 [6] of the same compound?
The IC50 was > 20 µM (inactive).

What about the IC50 [7] of the same compound?
Its IC50 is 14.7 µM (inactive).

What about the EC50 [8] of the same compound?
The EC50 was > 160 µM (inactive).

What about the EC50 [9] of the same compound?
Its EC50 is 4.42 µM (active).

What about the EC50 [10] of the same compound?
The EC50 was 0.294 µM (active).

What about the EC50 [11] of the same compound?
Its EC50 is 0.59 µM (active).

And the CC50 [12]?
Its CC50 is > 40 µM (active).

And the IC50 [13]?
Its IC50 is 18 µM (active).

What does the source list for `OC(COc1ccc2ccccc2c1Br)Cn1ccnc1` (stereo not given)?
CC50 [14]: > 20 µM (active); EC50 [3]: > 60 µM (not active); EC50 [15]: > 112 µM (not active); EC50 [16]: 2.07 µM (active); EC50 [17]: 2.07 µM (active); EC50 [10]: 0.501 µM (active); EC50 [18]: > 195 µM (not active); IC50 [19]: 14.3 µM (active); EC50 [20]: > 112 µM (not active)

With `O=C1NC(=O)C(=NNC(=O)C2COc3ccccc3O2)C(=O)N1` (stereo not given) as the compound, how does the AC50 [21] read?
Its AC50 is 11.7 µM (active).

What about the AC50 [22] of the same compound?
The AC50 was 2.66 µM (active).

For `O=c1c2ccccc2sn1-c1ccc(S(=O)(=O)N2CCCCC2)cc1`, which IC50 [23] is on record?
Its IC50 is 38.9 µM (inactive).

What about the IC50 [24] of the same compound?
The IC50 was 19.4 µM (active).

What about the IC50 [25] of the same compound?
Its IC50 is > 50 µM (inactive).

And the IC50 [26]?
The IC50 was > 80 µM (inactive).

And the IC50 [27]?
Its IC50 is > 100 µM (inactive).

Which IC50 [28] does the source give for `COc1ccc(CNC(=O)C(C)OC(=O)c2cc(-c3ccco3)nc3ccccc23)cc1` (stereo not given) here?
The IC50 was 17.5 µM (active).

What about the IC50 [29] of the same compound?
Its IC50 is 7.68 µM (active).

What about the IC50 [30] of the same compound?
The IC50 was 8.2 µM (active).

Which IC50 [31] does the source give for `CCC(=O)N1c2ccc(S(=O)(=O)N3CCN(c4ccc(Cl)cc4)CC3)cc2CC1C` (stereo not given) here?
Its IC50 is 6.8 µM (active).

And the IC50 [32]?
The IC50 was 0.584 µM (active).

What about the IC50 [33] of the same compound?
Its IC50 is 1.01 µM (active).
